Test results reported in patent US20130045983A1, “HSP90 INHIBITORS FOR THERAPEUTIC TREATMENT” (Novartis AG, priority 2008, published 2013).

Key:
Format in all cases: cell-based
H69 = assay: Cell proliferation assay, H69 (lung); conditions: Homo sapiens, NCI-H69, 72 hours in presence of compound
Protocol: (§1) Seventeen cancer derived cell lines are used (GTL-16, N87, H1975, A549, H69, A2780, PC3, BT474, SKBR3, MCF-7, A375, MV4;11, K562, KM12L4A, H929, OPM-2 and KMS-11) to test the effect of (R)-2-amino-7-[2-(6-methoxy-pyridin-2-yl)-phenyl]-4-methyl-7,8-dihydro-6H-pyrido[4,3-d]pyrimidin-5-one. These cell lines cover the following 9 tumor types: Gastric, Lung, Ovarian, Prostate, Breast, Melanoma, Leukemia, Colon and Multiple myeloma. After division and medium change, cells from stock culture are seeded on cell plates and cultured for about 18 hours to allow cell growth and attachment before starting the assay. Then on the first day of the assay, (R)-2-amino-7-[2-(6-methoxy-pyridin-2-yl)-phenyl]-4-methyl-7,8-dihydro-6H-pyrido[4,3-d]pyrimidin-5-one is added to the medium at various concentrations. Cells are cultured up to 72 or 96 hours and cell proliferation is determined using commercially available cell proliferation kits.
(§2) Table 1 relates to the concentration in nM of (R)-2-amino-7-[2-(6-methoxy-pyridin-2-yl)-phenyl]-4-methyl-7,8-dihydro-6H-pyrido[4,3-d]pyrimidin-5-one which inhibits cell proliferation by 50% (IC50). […]

MCF-7 = assay: Cell proliferation assay, MCF-7 (breast); conditions: Homo sapiens, MCF7, 72 hours in presence of compound
Protocol: as §1, §2

MV4:11 = assay: Cell proliferation assay, MV4:11 (leukemia); conditions: Homo sapiens, 72 hours in presence of compound
Protocol: as §1, §2

KM12L4A = assay: Cell proliferation assay, KM12L4A (colon); conditions: 72 hours in presence of compound
Protocol: as §1, §2

KMS-11 = assay: Cell proliferation assay, KMS-11 (multiple myeloma); conditions: Homo sapiens, 72 hours in presence of compound
Protocol: as §1, §2

BXF 1218 = assay: Clonogenic assay, BXF 1218; conditions: Homo sapiens, Bladder, Transitional cell carcinoma, soft agar, read-out: IC50 (colony formation)
Protocol: (§3) The anticancer activity of (R)-2-amino-7-[2-(6-methoxy-pyridin-2-yl)-phenyl]-4-methyl-7,8-dihydro-6H-pyrido[4,3-d]pyrimidin-5-one is evaluated in 30 human tumor xenografts in vitro using a clonogenic assay. In this assay, human cells derived from cancer patients are evaluated for the capacity of (R)-2-amino-7-[2-(6-methoxy-pyridin-2-yl)-phenyl]-4-methyl-7,8-dihydro-6H-pyrido[4,3-d]pyrimidin-5-one to inhibit the formation of 3 dimensional colonies. […] The tumor xenografts which have never been cultured in cell culture plastic dishes are isolated from nude mice. Tumor cell suspensions are prepared and incubated in 24 well plates containing layers of soft agar. Under these conditions a special subpopulation of cells selectively grows to colonies. (R)-2-amino-7-[2-(6-methoxy-pyridin-2-yl)-phenyl]-4-methyl-7,8-dihydro-6H-pyrido[4,3-d]pyrimidin-5one is tested in 6 concentrations up to 1000 nM. The tumor test panel comprises 1 to 10 models of 12 different human tumor types, which were bladder cancer, colon, gastric, non small cell lung (adeno, squamous cell, and large cell), small cell lung, mammary, ovary, and prostate cancer, as well as leukemia, lymphoma, melanoma, and sarcoma. Antitumor effects are recorded as inhibition of colony formation in relation to untreated controls. […]

CXF 1729 = assay: Clonogenic assay, CXF 1729; conditions: Homo sapiens, Colon, Papillary adenocarcinoma, soft agar, read-out: IC50 (colony formation)
Protocol: as §3

CXF 243 = assay: Clonogenic assay, CXF 243; conditions: Homo sapiens, Colon, Adenocarcinoma, soft agar, read-out: IC50 (colony formation)
Protocol: as §3

GXF 209 = assay: Clonogenic assay, GXF 209; conditions: Homo sapiens, Stomach, Signet-ring cell carcinoma, soft agar, read-out: IC50 (colony formation)
Protocol: as §3

LEXF CCRFCEM = assay: Clonogenic assay, LEXF CCRFCEM; conditions: Homo sapiens, CCRF-CEM, Leukemia, ALL, T lymphoblast, soft agar, read-out: IC50 (colony formation)
Protocol: as §3

LXFA 677 = assay: Clonogenic assay, LXFA 677; conditions: Homo sapiens, Lung, non-small cell, Adenocarcinoma, soft agar, read-out: IC50 (colony formation)
Protocol: as §3

LXFA 737 = assay: Clonogenic assay, LXFA 737; conditions: Homo sapiens, Lung, non-small cell, Adenocarcinoma, soft agar, read-out: IC50 (colony formation)
Protocol: as §3

LXFE 1422 = assay: Clonogenic assay, LXFE 1422; conditions: Homo sapiens, Lung, non-small cell, Squamous cell carcinoma, soft agar, read-out: IC50 (colony formation)
Protocol: as §3

MAXF 1384 = assay: Clonogenic assay, MAXF 1384; conditions: Homo sapiens, Breast, Adenocarcinoma, soft agar, read-out: IC50 (colony formation)
Protocol: as §3

MAXF 401 = assay: Clonogenic assay, MAXF 401; conditions: Homo sapiens, MAXF401, Breast, Pap. adenocarcinoma, soft agar, read-out: IC50 (colony formation)
Protocol: as §3

MAXF 857 = assay: Clonogenic assay, MAXF 857; conditions: Homo sapiens, Breast, Invasive ductal carcinoma, soft agar, read-out: IC50 (colony formation)
Protocol: as §3

MEXF 462 = assay: Clonogenic assay, MEXF 462; conditions: Homo sapiens, Amelanotic melanoma, soft agar, read-out: IC50 (colony formation)
Protocol: as §3

OVXF 1353 = assay: Clonogenic assay, OVXF 1353; conditions: Homo sapiens, Ovary, Adenocarcinoma, soft agar, read-out: IC50 (colony formation)
Protocol: as §3

SXF 1186 = assay: Clonogenic assay, SXF 1186; conditions: Homo sapiens, Sarcoma, Osteoblastic osteosarcoma, soft agar, read-out: IC50 (colony formation)
Protocol: as §3

SXF 463 = assay: Clonogenic assay, SXF 463; conditions: Homo sapiens, Sarcoma, Rhabdomyosarcoma, soft agar, read-out: IC50 (colony formation)
Protocol: as §3

COc1cccc(-c2ccccc2[C@H]2Cc3nc(N)nc(C)c3C(=O)N2)n1 [(R)-2-amino-7-[2-(6-methoxy-pyridin-2-yl)-phenyl]-4-methyl-7,8-dihydro-6H-pyrido[4,3-d]pyrimidin-5-one]
GI50 (H69): 37 nM | GI50 (MCF-7): 8 nM | GI50 (MV4:11): 4 nM | GI50 (KM12L4A): 11 nM | GI50 (KMS-11): 7 nM | IC50 (BXF 1218): 26 nM | IC50 (CXF 1729): 199 nM | IC50 (CXF 243): 44 nM | IC50 (GXF 209): 28 nM | IC50 (LEXF CCRFCEM): 27 nM | IC50 (LXFA 677): 27 nM | IC50 (LXFA 737): 26 nM | IC50 (LXFE 1422): 20 nM | IC50 (MAXF 1384): 14 nM | IC50 (MAXF 401): 15 nM | IC50 (MAXF 857): 12 nM | IC50 (MEXF 462): 65 nM | IC50 (OVXF 1353): 53 nM | IC50 (SXF 1186): 21 nM | IC50 (SXF 463): 5 nM
